US20260109763A1, “ANTI-PILRA ANTIBODIES, USES THEREOF, AND RELATED METHODS AND REAGENTS” (DENALI THERAPEUTICS INC., priority 2021, published 2026)

System: PILRA G78 expressing HEK293 cells
Experiment: mTOR dependence of anti-PILRA antibody-induced pSTAT3 Y705
Assay type: cell-based, human
Conditions: 2 hours pre-incubation; AZD8055 3.125-50 nM, Torin 1 31.25-500 nM; then 100 nM anti-PILRA mAb 30 mins
Procedure: To assess if pSTAT3 Y705 induction is mTOR dependent, cells were dosed with mTOR inhibitors Torin 1 (31.25-500 nM) or AZD8055 (3.125-50 nM) for 2 hours before spiking in 100 nM anti-PILRA mAb or isotype control for 30 mins.

Row | Structure (SMILES) | blocking of anti-PILRA antibody-induced pSTAT3 Y705 by mTOR inhibitor
1 | COc1ccc(-c2ccc3c(N4CCOC[C@@H]4C)nc(N4CCOC[C@@H]4C)nc3n2)cc1CO [AZD8055] | partially blocked
2 | CCC(=O)N1CCN(c2ccc(-n3c(=O)ccc4cnc5ccc(-c6cnc7ccccc7c6)cc5c43)cc2C(F)(F)F)CC1 [Torin 1] | partially blocked
